Series [1] relates to cells with LIS1 gene heterozygous mutation (Lis1+/−). The note with it: Lis1+/− cells treated with ALLN, NPL 1; cited from earlier work.
Series [2] concerns nerve cells from cerebellums of FVB mice. The series can be described thus: Analysis of toxicity of calpain inhibitors on cultured cerebellar nerve cells. It is filed as cell-based, mouse. The note with it: 16 hours, FIG. 24. How it is done:
The cerebellums were removed from 4- to 5-day-old FVB mice (15 mice). In a Ca^2+-free Hank's Balanced Salt Solution (CF-HBSS; Ca^2+, Mg^2+-free Hank's Balanced Salt Solution (CMF-HBBS, Sigma) containing 5 mM magnesium chloride (MgCl2, Wako) and 4 mg/mL glucose (Wako)), the meninges were removed and cut into pieces. After the cerebellum fragments were washed with CF-HBSS, the fragments were allowed to stand for 20 minutes at 37° C. in CF-HBSS containing 0.025% trypsin (Invitrogen) and 6.25 μg/mL deoxyribonuclease (DNase, Sigma), and then centrifuged. The resulting tissues were washed with 10% HS/BME (DNase Medium; obtained by adding 5 mM MgCl2 and 25 μg/mL DNase to Basal Medium Eagle (BME, Invitrogen) containing 10% Horse Serum (HS, Invitrogen)) and centrifuged. DNase medium was added to the cells, and the cells were transferred to a 24-well plate (Nunc). The cells were kept still for 30 minutes at 37′C under an atmospheric environment of 5% CO2, thereby suspending the cells. The cell suspension was isolated, and then washed with 10% HS/BME. The suspension was transferred again to a 24-well plate to be cultured for 16 hours at 37° C. under an atmospheric environment of 5% CO2. The cells were collected to BME containing 1% Bovine Serum Albumin (BSA, Sigma) and 0.5% N2 supplement (Invitrogen), and the cell suspension was seeded on a 35 mm glass base dish (Iwaki) coated beforehand with poly-L-lysine (Sigma) and laminin (Sigma) in an amount of […]. The cells were cultured for 8 hours at 37° C. under an atmospheric environment of 5% CO2. The cultured nerve cells were used as test nerve cells.
A culture solution (10% HS/BME) containing SNJ-1945, E64d, or ALLN was prepared in the following manner. SNJ-1945 dissolved in dimethyl sulfoxide (Sigma, D-5879) was mixed with a culture solution so that the final concentration became 200 μM, and was kept still for an hour at 37° C., thereby completely dissolving SNJ-1945 in the culture medium. ALLN and E64d were also dissolved in culture media in the same manner, except that ALLN and E64d were added to the culture media to final concentrations of 50 μM and 100 μM, respectively. The culture media in which the components were dissolved were added to the test nerve cells prepared above in an amount of 2 ml/well, and the cells were cultured for 16 hours. As a control, the same culture was conducted using a culture medium containing the same amount of dimethyl sulfoxide (Sigma, D-5879). After culture, the cells were observed using an inverted microscope (TCS FP5S, Leica). A 20× objective lens was used. Images were taken using dedicated software (LAS AF, Leica) under the condition of 512×512 pixels.

In series [3] the target is T1, μ-calpain (derived from human red blood cells) (Homo sapiens, UniProt P07384).
T1 construct: derived from human red blood cells; purchased Cosmo Bio Co., Ltd; host or cells: human red blood cells (tissue-purified)
T1 sequence (P07384 1-714): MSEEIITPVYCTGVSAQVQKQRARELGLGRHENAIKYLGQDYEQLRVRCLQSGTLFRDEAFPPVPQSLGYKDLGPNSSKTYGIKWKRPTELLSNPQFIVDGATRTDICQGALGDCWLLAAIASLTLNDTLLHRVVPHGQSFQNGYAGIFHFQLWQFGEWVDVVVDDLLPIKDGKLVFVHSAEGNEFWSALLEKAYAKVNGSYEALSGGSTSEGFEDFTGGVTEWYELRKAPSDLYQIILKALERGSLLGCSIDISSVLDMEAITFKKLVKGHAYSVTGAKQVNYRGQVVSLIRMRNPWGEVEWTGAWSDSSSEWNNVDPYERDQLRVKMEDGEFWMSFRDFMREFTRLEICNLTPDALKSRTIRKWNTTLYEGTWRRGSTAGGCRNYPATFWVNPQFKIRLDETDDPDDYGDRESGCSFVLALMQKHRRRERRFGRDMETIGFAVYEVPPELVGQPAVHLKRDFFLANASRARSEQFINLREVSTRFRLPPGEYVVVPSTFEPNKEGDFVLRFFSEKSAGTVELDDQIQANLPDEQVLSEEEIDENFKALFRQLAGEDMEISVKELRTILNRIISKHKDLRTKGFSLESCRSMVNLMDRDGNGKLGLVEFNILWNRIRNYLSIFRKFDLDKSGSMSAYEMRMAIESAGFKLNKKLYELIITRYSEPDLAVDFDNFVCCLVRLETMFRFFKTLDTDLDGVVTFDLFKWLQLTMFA
T1 sequence (P04632 1-268 partner): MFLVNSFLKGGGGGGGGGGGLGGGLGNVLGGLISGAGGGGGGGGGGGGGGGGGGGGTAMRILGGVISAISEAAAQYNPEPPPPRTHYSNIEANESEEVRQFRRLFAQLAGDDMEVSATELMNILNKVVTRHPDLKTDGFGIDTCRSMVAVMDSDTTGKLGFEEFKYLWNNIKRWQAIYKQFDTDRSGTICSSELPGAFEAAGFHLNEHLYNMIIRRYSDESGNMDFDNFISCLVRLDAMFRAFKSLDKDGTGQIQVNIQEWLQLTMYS
The series can be described thus: Measurement of inhibitory activity against μ-calpain. Format: biochemical. The note with it: casein substrate, 30° C., 60 minutes; read-out: enzyme inhibitory activities (μM) μ-calpain. The procedure: (§1) The inhibitory activity against μ-calpain and m-calpain was assayed according to a published method (Anal. Biochem. 1993, vol. 208, p. 387-392). More specifically, 200 μL of a reaction solution containing 0.5 mg/mL casein, 50 mM Tris-HCl buffer (pH 7.4), 20 mM dithiothreitol and 1.0 nmol μ-calpain (derived from human red blood cells, Cosmo Bio Co., Ltd.) or m-calpain (derived from porcine kidney, Cosmo Bio Co., Ltd.) was added to individual 2.5 μL portions of DMSO solution containing a varying concentration of a test sample in a 96-well plate. Then, 50 μL of 20 mM aqueous calcium chloride was added thereto, and reaction was performed at 30° C. for 60 minutes. 100 μL of the reaction solution was transferred to another 96-well plate, and purified water (50 μL) and 50% aqueous solution (100 μL) of Protein Assay Dye Reagent (available from Bio-Rad Laboratories, Inc.; catalogue No. 500-600) were added thereto. The reaction mixture was allowed to stand at room temperature for 15 minutes, and its absorbance was measured at 595 nm. The absorbance of a reaction mixture prepared in the same manner as mentioned above, except that a DMSO solution containing no sample was used as a control value; and the absorbance of a reaction mixture prepared in the same manner as mentioned above, except that a 1 mM aqueous EDTA solution (50 μL) was used in place of 20 mM aqueous calcium chloride, was used as a blank value. […] Inhibition rate (%){1−(measured value−blank test value)/(control value−blank test value)}×100
The concentrations (IC50) are shown in Table 1 as enzyme (calpain) inhibitory activities (μM).

The target in series [4] is m-calpain (derived from porcine kidney) (Sus scrofa, UniProt I3LQD3). The series can be described thus: Measurement of inhibitory activity against m-calpain. It is filed as biochemical. The note with it: casein substrate, 30° C., 60 minutes; read-out: enzyme inhibitory activities (μM) m-calpain. How it is done: as §1, with “More” for “The inhibitory activity against μ-calpain and m-calpain was assayed according to a published method (Anal. Biochem. 1993, vol. 208, p. 387-392). More”, “The reaction mixture was allowed to stand at room temperature for 15 minutes, and its absorbance was measured at 595 nm.” left out
m-calpain (derived from porcine kidney), sequence (I3LQD3 entry or part of it): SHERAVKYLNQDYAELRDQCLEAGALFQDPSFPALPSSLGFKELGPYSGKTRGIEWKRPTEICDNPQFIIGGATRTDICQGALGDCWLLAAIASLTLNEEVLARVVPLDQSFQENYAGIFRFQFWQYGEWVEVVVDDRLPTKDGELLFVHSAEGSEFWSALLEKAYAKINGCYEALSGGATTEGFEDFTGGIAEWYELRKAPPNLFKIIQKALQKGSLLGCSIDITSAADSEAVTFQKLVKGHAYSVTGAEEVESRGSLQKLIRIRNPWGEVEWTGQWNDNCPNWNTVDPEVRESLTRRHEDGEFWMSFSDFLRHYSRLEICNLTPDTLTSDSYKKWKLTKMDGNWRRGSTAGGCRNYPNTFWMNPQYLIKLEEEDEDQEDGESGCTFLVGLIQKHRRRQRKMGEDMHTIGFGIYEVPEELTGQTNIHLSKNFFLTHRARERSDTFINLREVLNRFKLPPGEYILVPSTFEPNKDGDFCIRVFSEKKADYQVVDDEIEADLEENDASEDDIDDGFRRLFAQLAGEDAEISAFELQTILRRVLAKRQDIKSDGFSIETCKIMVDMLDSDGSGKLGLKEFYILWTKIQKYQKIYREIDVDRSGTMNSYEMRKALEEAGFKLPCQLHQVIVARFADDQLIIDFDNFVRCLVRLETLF
m-calpain (derived from porcine kidney), sequence (P04574 whole entry, further chain): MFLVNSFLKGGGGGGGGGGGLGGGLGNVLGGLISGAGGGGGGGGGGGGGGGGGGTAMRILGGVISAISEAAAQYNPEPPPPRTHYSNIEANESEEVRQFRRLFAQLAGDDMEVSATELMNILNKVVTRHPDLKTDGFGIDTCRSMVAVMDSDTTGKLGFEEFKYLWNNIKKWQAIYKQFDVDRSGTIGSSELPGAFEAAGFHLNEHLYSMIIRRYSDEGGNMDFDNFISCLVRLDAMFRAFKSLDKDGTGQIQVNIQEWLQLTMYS

The structures appear in SMILES notation. Non-standard residues stand in square brackets, D forms with d. Residues, ends and D or L forms follow the SMILES beside them. Nle = CCCC[CH](N)C(=O)O

Usually melting point stands for the temperature of the solid-liquid transition.

`CCCCC(C=O)NC(=O)C(CC(C)C)NC(=O)C(CC(C)C)NC(C)=O` (stereo not drawn) [ALLN, N-Acetyl-Leu-Leu-Nle-CHO] (Ac-Leu-Leu-[Nle]-aldehyde; configuration not given here): in series [1], the LIS1 protein expression result was “increased LIS1 protein expression” and the neuronal migration result is listed as “restored neuronal migration”. In addition, the “neurite elongation and cell migration (cytotoxicity)” value in series [2] (50 μM) is “the cells were roundly aggregated, neurite elongation was hardly observed, the cells remained accumulated in the center, and migration was hardly observed”.

As for `CCOC(=O)[C@H]1O[C@@H]1C(=O)N[C@@H](CC(C)C)C(=O)NCCC(C)C` [E64d, reference compound], in series [2] (100 μM), the “neurite elongation and cell migration (cytotoxicity)” value was “the cells were aggregated in the center, many cells were incapable of neurite elongation, little migration was observed compared with the control”.

Compound `COCCOC(=O)N[C@@H](CC(C)C)C(=O)N[C@@H](Cc1ccccc1)C(=O)C(=O)NC1CC1` [compound 4, ((1S)-1-((((1S)-1-Benzyl-2,3-dioxo-3-(cyclopropylamino)propyl)amino)carbonyl)-3-methylbutyl)carbamic acid 2-methoxyethyl ester] showed a melting point of 112.4 to 113.5 °C. In addition, the IC50 in series [3] was determined as 0.11 µM.

As to `COCCOCCOCCOC(=O)N[C@@H](CC(C)C)C(=O)N[C@@H](Cc1ccccc1)C(=O)C(=O)NC1CC1` [compound 18, ((1S)-1-((((1S)-1-Benzyl-2,3-dioxo-3-(cyclopropylamino)propyl)amino)carbonyl)-3-methylbutyl)carbamic acid 8-methoxy-3,6-dioxaoctyl ester], the IC50 in series [3] stood at 0.19 µM.

Compound `COCCOCCOCCOCCOC(=O)N[C@@H](CC(C)C)C(=O)N[C@@H](Cc1ccccc1)C(=O)C(=O)NC1CC1` [compound 19, ((1S)-1-((((1S)-1-Benzyl-2,3-dioxo-3-(cyclopropylamino)propyl)amino)carbonyl)-3-methylbutyl)carbamic acid 11-methoxy-3,6,9-trioxaundecanyl ester] gave a melting point of 97.5 to 98.5 °C. Also, in series [4], the IC50 came out at 0.17 µM. The IC50 in series [3] is 0.22 µM.

Regarding `COCCOCCOCCOCCOCCOC(=O)N[C@@H](CC(C)C)C(=O)N[C@@H](Cc1ccccc1)C(=O)C(=O)NC1CC1` [compound 20, ((1S)-1-((((1S)-1-Benzyl-2,3-dioxo-3-(cyclopropylamino)propyl)amino)carbonyl)-3-methylbutyl)carbamic acid 14-methoxy-3,6,9,12-tetraoxatetradecanyl ester], the melting point was 98.5 to 99.9 °C. Besides, the IC50 in series [4] stood at 0.19 µM. Further, in series [3], the IC50 came to 0.42 µM.

(Values after patent US9539298B2, “Lissencephaly therapeutic agent” (OSAKA CITY UNIVERSITY, priority 2010, dated 2017).)
